Reference: article PMC4326127, “Collagen Inhibitory Peptide R1R2 Mediates Vascular Remodeling by Decreasing Inflammation and Smooth Muscle Cell Activation” (PLoS ONE, 2015)

Experiments:
[1] = system: left common carotid artery (flow-induced vascular remodeling); experiment: Morphometric analysis of carotid artery after complete common carotid ligation; assay type: in vivo, FVB/NJ (FVB) mice; conditions: for EEL Area / Intima+Media / Intima/Media Ratio / Lumen: 20 μM peptide in 50 μl F-127 pluronic gel, mean ± SEM
Source text: (§1) Animals were anesthetized with isoflurane inhalation. The left common carotid artery was exposed, dissected free from the surrounding connective tissue and completely ligated with 6-0 silk suture just proximal to the carotid bifurcation. […] 4–10 mice were included in each experimental group.
5 groups of animals were processed for morphometric analysis. Mice were fixed with 10% formalin 7 or 14 days after the surgery. The common carotid arteries were harvested and embedded in paraffin.
(§2) For in vivo experiments, the data are shown as the mean ± SEM. For in vitro experiments, the data shown are the means ± SD of a representative experiment, at least 3 independent experiments were performed. One-way ANOVA with post-hoc testing were used for data analysis with GraphPad Prism software (GraphPad, San Diego, CA). If normality test failed, nonparametric Kruskal-Wallis test followed by Dunn's post-hoc test were used. P > 0.05 was not considered significant.

collagen type I [2] = experiment: IHC for collagen type I in ligated carotid artery; assay type: in vivo, FVB/NJ (FVB) mice; conditions: 7 days after surgery; 20 μM peptide in pluronic gel; mean ± SEM; R1R2 n = 6, scrambled n = 6
Procedure: as §1
(§3) Paraffin sections selected from the first mm of the carotid artery in each group were used for immunohistochemistry (IHC). […] Sections were then incubated with appropriate biotinylated secondary antibodies followed by avidin-biotin immunoperoxidase system (Vector Laboratories, Burlingame, CA). Liquid DAB Substrate Chromogen system (Dako, Carpinteria, CA) was used for detection.
(§4) Quantitative IHC analysis was performed on digital images captured with a 20x objective by using Image-Pro Plus software. Data from 3–6 mice for each group were averaged, and the average values ± SEM were shown. For FN, collagen type I, SM-MHC and SM α-actin, color digital images were transformed into gray scale, and the sum of the optical densities from the intima+media area in each section was determined. […] The percent of positive cells is reported as the proliferation index. […] The intima+media region was traced manually. The percent of positively stained area in intima+media to the total traced area was assessed.
(§5) For in vivo experiments, the data are shown as the mean ± SEM. […]

collagen = experiment: Hydroxyproline assay of carotid collagen content; assay type: in vivo, FVB/NJ (FVB) mice; conditions: 14 days post-ligation; three carotid arteries pooled per group; colorimetric chloramine T; mean ± SEM, n = 3
Procedure: as §1
After reconstituting with water, samples were measured using a colorimetric chloramine T assay. Three independent experiments were performed for statistical analysis.
as §2

FN = experiment: IHC for FN in ligated carotid artery; assay type: in vivo, FVB/NJ (FVB) mice; conditions: for FN IHC intensity in intima-media area: mean ± SEM
Procedure: as §1, §3, §4, §2

[3] = system: smooth muscle α-actin (SMAA); experiment: IHC for smooth muscle α-actin in ligated carotid artery; assay type: in vivo, FVB/NJ (FVB) mice; conditions: 7 days post-ligation; mean ± SEM; scrambled n = 6, R1R2 n = 5 (sham 0.232 ± 0.011, n = 5)
Procedure: as §1, §3, §4, §5

Ki-67 (+) cells = experiment: Ki-67 IHC, cell proliferation in carotid intima and media; assay type: in vivo, FVB/NJ (FVB) mice; conditions: 7 days post-surgery, mean ± SEM, n = 5 each
Procedure: as §1, §3, §4, §5

ICAM-1 = ICAM-1 IHC in ligated carotid artery; assay type: in vivo, FVB/NJ (FVB) mice; conditions: 7 days after ligation; percent of positively stained area; mean ± SEM; R1R2 n = 7, control peptide n = 8
Procedure: as §1, §3, §4, §5

HUVECs = experiment: HUVEC proliferation assay; assay type: cell-based, human; conditions: at the start of the adhesion assay, versus control peptide; data not shown; in words
Procedure: Human umbilical vein endothelial cells (HUVECs) and A7r5 SMCs were provided by Resource Center (SB3, NSC 100-2325-B-080-001), National Research Program for Biopharmaceuticals (Hsinchu, Taiwan). HUVECs were maintained in M199 (Life Technologies, Carlsbad, CA) with 25U/ml heparin (Sigma-Aldrich, St. Louis, MO), 10% fetal bovine serum (FBS) and endothelial cell growth supplement (ECGS; Millipore, Billerica, MA). A7r5 SMCs were grown in Dulbecco’s Modified Eagle’s Medium (DMEM) containing high glucose, supplemented with 10% fetal bovine serum. Human U937 cells were grown in RPMI1640 with 10% FBS.
A7r5 cells and HUVECs were growth-arrested and then stimulated with 10% FBS or 10 ng/ml TNF-αovernight after serum starvation as indicated in the figure legend. Briefly, trypan blue-excluding cells were counted with a hemocytometer, and data were analyzed using GraphPad Prism Software (San Diego, CA) as in previous studies. A second observer performed a similar analysis to verify the initial findings.

collagen type I [4] = conditions: in vitro; ref [29],[30],[33]; cited from earlier work
Source text: (§6) In order to assess whether inhibiting collagen type I deposition reduces vascular remodeling in an in vivo mouse model, we used the collagen inhibitory peptide R1R2 for this study. The R1R2 peptide is derived from two repeat domains of the bacterial adhesin SFS, and is highly homologous to collagen. […] It is likely that R1R2 blocks collagen type I fibril formation around cells by binding to the collagen-binding domain of FN. To characterize the effects of our synth ...

collagen-FN binding = conditions: in vitro; ref [29],[30],[33]; cited from earlier work
Source text: as §6

smooth muscle cell = conditions: in vitro; ref [29],[30],[33]; cited from earlier work
Source text: as §6

[5] = 7 day after ligation, periadventitial, scrambled n = 4, R1R2 n = 10
[6] = 14 day after ligation, periadventitial, scrambled n = 4, R1R2 n = 9

GLNGENQKEPEQGERGEAGPPLSGLSGNNQGRPSLPGLNGENQKEPEQGERGEAGPP [R1R2]
effect on neointimal formation ([1]; 7 and 14 days post-ligation, 20 μM peptide in pluronic gel, periadventitial, in words): dramatic attenuation in injury-induced neointimal formation
EEL Area [1, 5]: 64905 ± 3680 (n = 10) μm^2
Intima+Media [1, 5]: 29208 ± 884 (n = 10) μm^2
Intima/Media Ratio [1, 5]: 0.0424 ± 0.0133 (n = 10)
Lumen [1, 5]: 32038 ± 2870 (n = 10) μm^2
effect on intima-media area, EEL area and intimal/medial ratio ([1]; 7 days and 14 days after ligation, compared to the control mice, in words): significantly reduced intima-media areas (Intima + Media), EEL area and intimal/medial ratios
EEL Area [1, 6]: 51482 ± 4981 (n = 9) μm^2
Intima+Media [1, 6]: 25706 ± 1220 (n = 9) μm^2
Intima/Media Ratio [1, 6]: 0.0709 ± 0.0231 (n = 9)
Lumen [1, 6]: 25776 ± 4286 (n = 9) μm^2
effect on lumenal area ([1]; day 7 and 14 after injury, compared to the controls, in words): no significant decrease in the lumenal area
collagen type I IHC intensity in intima-media area (collagen type I [2]): 0.117 ± 0.007
collagen content, hydroxyproline assay (collagen): 1.522 ± 0.077
effect on FN intensity (FN; 7 and 14 days after ligation, R1R2 vs scrambled peptide, in words): no significant decrease of FN intensity
FN IHC intensity in intima-media area (FN; 7 days after ligation, R1R2 n = 6, scrambled n = 6): 0.153 ± 0.012
FN IHC intensity in intima-media area (FN; 14 days after ligation, R1R2 n = 7, scrambled n = 7): 0.309 ± 0.005
SMAA IHC staining in intima-media area [3]: 0.214 ± 0.004
proliferation index (Ki-67 (+) cells/total cells) (Ki-67 (+) cells): 11.20 ± 0.62%
ICAM-1 (+) area in intima-media (ICAM-1): 11.58 ± 2.387%
effect on HUVEC cell number (HUVECs): No significant decrease
effect on collagen type I deposition (collagen type I [4]): known to inhibit collagen-FN binding, collagen type I deposition
effect on collagen-FN binding (collagen-FN binding): known to inhibit collagen-FN binding
effect on smooth muscle cell migration (smooth muscle cell): known to inhibit collagen-FN binding, collagen type I deposition, and smooth muscle cell migration in vitro
